These are literature values, as cited in patent US20180256623A1, “COMPOSITIONS AND METHOD FOR REGULATING ADIPOSE TISSUE LIPOLYSIS, INSULIN-RESISTANCE, AND HYPERGLYCEMIA” (University of Virginia Patent Foundation, priority 2015, published 2018).

Structures are written as SMILES.

The IC50 is the point on the concentration scale where inhibition reaches its midpoint.

The target in the first data set is T1, HSL (Homo sapiens, UniProt Q05469).
T1 sequence (Q05469 1-1076): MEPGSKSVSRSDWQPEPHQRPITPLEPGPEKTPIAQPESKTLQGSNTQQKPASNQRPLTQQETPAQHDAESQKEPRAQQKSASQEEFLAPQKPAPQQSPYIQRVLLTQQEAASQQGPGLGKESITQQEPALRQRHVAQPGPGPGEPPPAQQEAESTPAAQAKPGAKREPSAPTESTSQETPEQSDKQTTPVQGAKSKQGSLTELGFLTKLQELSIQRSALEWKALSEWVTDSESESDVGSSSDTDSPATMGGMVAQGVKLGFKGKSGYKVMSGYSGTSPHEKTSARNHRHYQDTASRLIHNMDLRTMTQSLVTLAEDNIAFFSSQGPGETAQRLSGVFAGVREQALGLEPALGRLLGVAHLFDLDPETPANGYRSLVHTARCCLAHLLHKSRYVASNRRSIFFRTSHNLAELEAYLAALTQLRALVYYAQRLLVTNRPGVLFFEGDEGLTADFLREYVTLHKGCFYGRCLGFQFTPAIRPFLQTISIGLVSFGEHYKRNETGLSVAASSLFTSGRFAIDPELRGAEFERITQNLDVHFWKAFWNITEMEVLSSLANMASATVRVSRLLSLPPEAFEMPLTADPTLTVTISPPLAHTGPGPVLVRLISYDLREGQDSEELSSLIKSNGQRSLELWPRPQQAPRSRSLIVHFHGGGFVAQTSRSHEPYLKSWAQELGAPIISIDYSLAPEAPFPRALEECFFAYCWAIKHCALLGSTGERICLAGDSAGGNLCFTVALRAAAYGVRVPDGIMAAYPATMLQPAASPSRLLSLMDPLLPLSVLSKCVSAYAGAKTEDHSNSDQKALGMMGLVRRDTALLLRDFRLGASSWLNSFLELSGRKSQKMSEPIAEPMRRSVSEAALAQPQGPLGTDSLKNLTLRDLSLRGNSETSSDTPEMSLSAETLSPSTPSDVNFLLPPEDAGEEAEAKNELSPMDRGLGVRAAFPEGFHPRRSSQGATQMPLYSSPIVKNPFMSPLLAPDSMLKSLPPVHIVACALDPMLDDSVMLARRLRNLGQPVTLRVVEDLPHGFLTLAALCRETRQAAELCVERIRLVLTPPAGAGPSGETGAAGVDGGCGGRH
Conditions: Table 1, 4-substituted 5-(2H)-isoxazolones; means of three experiments; cited from earlier work.
Consider `Cc1c(C2CCSCC2)c(=O)on1C(=O)N1CCCCC1` [Compound 15], for which the half-inhibitory concentration (IC50) was 55 nM.

In the case of `Cc1c(-c2ccccc2)c(=O)on1C(=O)N1CCCCC1` [Compound 19], the IC50 is 17 nM.

The same data set, now with this note: Table 2, acyclic ureas; means of three experiments; Na = not active; cited from earlier work.
On to `Cc1c(C(C)C)c(=O)on1C(=O)NC(C)(C)C` [Compound 20], for which the IC50 was over 1000 nM.

For `Cc1c(C(C)C)c(=O)on1C(=O)Nc1ccccc1` [Compound 21], the IC50 was over 1000 nM.

The data set is the same for the next values; noted with them: Table 3, cyclic amine-derived ureas; means of three experiments; Na = not active; cited from earlier work.
On to `Cc1c(C(C)C)c(=O)on1C(=O)N1CCc2ccccc21` [Compound 44], for which the half-inhibitory concentration (IC50) is over 1000 nM.

On to `Cc1c(C(C)C)c(=O)on1C(=O)N1CCNCC1` [Compound 46], for which the IC50 is over 1000 nM.

Staying with this data set, now noted: piperidine derivatives; means of three experiments; Na = not active; cited from earlier work.
In the case of `Cc1c(C(C)C)c(=O)on1C(=O)N1CCC(C(=O)N(C)C)CC1` [Compound 84], the IC50 is over 1000 nM.

`Cc1nnc(C2CCN(C(=O)n3oc(=O)c(C(C)C)c3C)CC2)o1` [Compound 86]: the IC50 was over 1000 nM.

Consider `Cc1c(C(C)C)c(=O)on1C(=O)N1CCC(C#N)(c2ccccc2)CC1` [Compound 91], for which the IC50 was over 1000 nM.

Turning to `Cc1c(C(C)C)c(=O)on1C(=O)N1CCC(O)(c2ccccc2)CC1` [Compound 92], the IC50 is over 1000 nM.

The subject of the next data set is 3T3-L1. The settings on record: Table 1, 4-substituted 5-(2H)-isoxazolones; means of three experiments; cited from earlier work.
On to `Cc1c(Sc2ccc(Cl)cc2)c(=O)on1C(=O)N1CCCCC1` [Compound 1], for which the half-maximal inhibitory concentration (IC50) is 135 nM.

Turning to `Cc1c(Sc2ccccc2)c(=O)on1C(=O)N1CCCCC1` [Compound 3], the IC50 was 190 nM.

Turning to `Cc1c(Cc2ccccc2)c(=O)on1C(=O)N1CCCCC1` [Compound 4], the IC50 is 90 nM.

In the case of `Cc1c(C)n(C(=O)N2CCCCC2)oc1=O` [Compound 5], the IC50 was 655 nM.

Consider `CCc1c(C)n(C(=O)N2CCCCC2)oc1=O` [Compound 6], for which the IC50 was 325 nM.

`Cc1c(C(C)C)c(=O)on1C(=O)N1CCCCC1` [Compound 8]: the IC50 was 75 nM.

`Cc1c(CC(C)C)c(=O)on1C(=O)N1CCCCC1` [Compound 9]: the IC50 was 32 nM.

With `Cc1c(C(C)(C)C)c(=O)on1C(=O)N1CCCCC1` [Compound 10], the IC50 was 90 nM.

Take `Cc1c(C2CCCC2)c(=O)on1C(=O)N1CCCCC1` [Compound 11]: the IC50 is 22 nM.

In the case of `Cc1c(C2CCCCC2)c(=O)on1C(=O)N1CCCCC1` [Compound 12], the IC50 was 27 nM.

As for `Cc1c(C2CCOCC2)c(=O)on1C(=O)N1CCCCC1` [Compound 13], the IC50 is 200 nM.

On to `Cc1c(C2CCSCC2)c(=O)on1C(=O)N1CCCCC1` [Compound 14], for which the half-inhibitory concentration (IC50) was 98 nM.

As to `Cc1c(C2CCSCC2)c(=O)on1C(=O)N1CCCCC1` [Compound 15], the IC50 is 380 nM.

As to `COCCc1c(C)n(C(=O)N2CCCCC2)oc1=O` [Compound 16], the IC50 was 180 nM.

Regarding `Cc1c(CCOc2ccccc2)c(=O)on1C(=O)N1CCCCC1` [Compound 17], the IC50 is 2 nM.

Regarding `Cc1c(-c2ccccc2)c(=O)on1C(=O)N1CCCCC1` [Compound 19], the IC50 was 150 nM.

The data set is the same for the next values; noted with them: Table 2, acyclic ureas; means of three experiments; Na = not active; cited from earlier work.
For the molecule `Cc1c(C(C)C)c(=O)on1C(=O)N(C)C1CCCCC1` [Compound 24], the IC50 was over 1000 nM.

On to `Cc1c(C(C)C)c(=O)on1C(=O)N(C)Cc1ccccc1` [Compound 25], for which the IC50 is 67 nM.

Consider `Cc1c(C(C)C)c(=O)on1C(=O)N(C)Cc1ccccc1F` [Compound 26], for which the IC50 was 10 nM.

`Cc1c(C(C)C)c(=O)on1C(=O)N(C)Cc1ccc(F)cc1` [Compound 28]: the IC50 was 1000 nM.

Regarding `Cc1c(C(C)C)c(=O)on1C(=O)N(C)Cc1ccco1` [Compound 30], the IC50 is 9 nM.

As to `Cc1c(C(C)C)c(=O)on1C(=O)N(C)CCc1ccccc1` [Compound 33], the IC50 was 300 nM.

For the molecule `Cc1c(C(C)C)c(=O)on1C(=O)N(C)c1ccc(Cl)cc1` [Compound 37], the IC50 was over 1000 nM.

As to `CCN(CC)C(=O)n1oc(=O)c(C(C)C)c1C` [Compound 39], the IC50 was 600 nM.

Staying with this data set, now noted: Table 3, cyclic amine-derived ureas; means of three experiments; Na = not active; cited from earlier work.
For `Cc1c(C(C)C)c(=O)on1C(=O)N1CCCCC1` [Compound 8], the IC50 is 75 nM.

As for `Cc1c(C(C)C)c(=O)on1C(=O)N1CCCC1` [Compound 41], the IC50 is 28 nM.

For the molecule `Cc1c(C(C)C)c(=O)on1C(=O)N1CC=CC1` [Compound 43], the IC50 is 120 nM.

Regarding `Cc1c(C(C)C)c(=O)on1C(=O)N1CCN(C)CC1` [Compound 47], the IC50 was over 1000 nM.

Take `Cc1c(C(C)C)c(=O)on1C(=O)N1CCN(Cc2ccccc2)CC1` [Compound 48]: the IC50 was 56 nM.

As for `Cc1c(C(C)C)c(=O)on1C(=O)N1CCN(c2ccccc2)CC1` [Compound 49], the IC50 is 27 nM.

For `Cc1c(C(C)C)c(=O)on1C(=O)N1CCOCC1` [Compound 53], the IC50 is over 1000 nM.

As to `Cc1c(C(C)C)c(=O)on1C(=O)N1CCSCC1` [Compound 54], the IC50 was 290 nM.

Consider `Cc1c(C(C)C)c(=O)on1C(=O)N1CCCCCC1` [Compound 55], for which the IC50 is 215 nM.

The data set is the same for the next values; noted with them: piperidine derivatives; means of three experiments; Na = not active; cited from earlier work.
Consider `Cc1c(C(C)C)c(=O)on1C(=O)N1CCCCC1` [Compound 8], for which the IC50 is 75 nM.

As to `Cc1c(C(C)C)c(=O)on1C(=O)N1CCCCC1C` (centres unmarked) [Compound 57], the IC50 is 400 nM.

Take `Cc1c(C(C)C)c(=O)on1C(=O)N1CCC[C@@H](C)C1` [Compound 58]: the IC50 is 187 nM.

As for `Cc1c(C(C)C)c(=O)on1C(=O)N1CCC[C@H](C)C1` [Compound 59], the 50% inhibitory concentration (IC50) is 28 nM.

Consider `Cc1c(C(C)C)c(=O)on1C(=O)N1CCCC(CO)C1` (centres unmarked) [Compound 60], for which the IC50 is 800 nM.

`CCOC(=O)C1CCCN(C(=O)n2oc(=O)c(C(C)C)c2C)C1` (centres unmarked) [Compound 62]: the IC50 is 170 nM.

As to `Cc1c(C(C)C)c(=O)on1C(=O)N1CCC(C)CC1` [Compound 63], the IC50 was 40 nM.

As to `CCCCc1c(C)n(C(=O)N2CCC(C)CC2)oc1=O` [Compound 64], the IC50 was 10 nM.

Regarding `Cc1c(C2CCCCC2)c(=O)on1C(=O)N1CCC(C)CC1` [Compound 66], the IC50 is 20 nM.

Take `CCOCCc1c(C)n(C(=O)N2CCC(C)CC2)oc1=O` [Compound 67]: the IC50 was 20 nM.

With `Cc1c(C2CCSCC2)c(=O)on1C(=O)N1CCC(C)CC1` [Compound 68], the IC50 was 24 nM.

On to `Cc1c(C(C)C)c(=O)on1C(=O)N1CCC(c2ccccc2)CC1` [Compound 70], for which the IC50 is 33 nM.

For the molecule `Cc1c(C2CCCC2)c(=O)on1C(=O)N1CCC(c2ccccc2)CC1` [Compound 72], the IC50 was 8 nM.

As to `COCCc1c(C)n(C(=O)N2CCC(c3ccccc3)CC2)oc1=O` [Compound 73], the IC50 is 5 nM.

Take `Cc1c(C(C)C)c(=O)on1C(=O)N1CCC(c2cccc(F)c2)CC1` [Compound 74]: the IC50 was 4 nM.

For the molecule `COCCc1c(C)n(C(=O)N2CCC(c3cccc(F)c3)CC2)oc1=O` [Compound 75], the IC50 was 0.2 nM.

As to `COCCc1c(C)n(C(=O)N2CCC(c3cccc(C)c3)CC2)oc1=O` [Compound 76], the IC50 is 4 nM.

Turning to `Cc1ccc(C2CCN(C(=O)n3oc(=O)c(C(C)C)c3C)CC2)cc1` [Compound 77], the IC50 is 246 nM.

As to `Cc1c(C(C)C)c(=O)on1C(=O)N1CCC(=O)CC1` [Compound 83], the IC50 is 150 nM.

In the case of `Cc1c(C(C)C)c(=O)on1C(=O)N1CC(C)CCC1C` (centres unmarked) [Compound 88], the IC50 is over 1000 nM.

Regarding `Cc1c(C(C)C)c(=O)on1C(=O)N1CC(C)CC(C)C1` (centres unmarked) [Compound 90], the IC50 is 140 nM.

For `Cc1c(C(C)C)c(=O)on1C(=O)N1CCC(O)(c2ccccc2)CC1` [Compound 92], the IC50 was over 1000 nM.
